Measured values reported in ChEMBL document CHEMBL1201862, “PubChem BioAssay data set” (2004).
Calls of active or inactive are those of the source.

Experiments:
[1] = biological target: T1, Heat shock factor protein 1 (Mus musculus, UniProt P38532); assay: inhibition of MG132-induced HSE-luciferase signal, confirmation, cell-based, NIH3T3, luminescence, dose retest (AID 2382); assay type: functional;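 also: NIH3T3 fibroblasts with HSF1-driven luciferase reporter stressed by proteasome inhibitor MG132; luminescence from HSF1-driven luciferase expression after 8 hours of MG132 stress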
T1 sequence (P38532 whole entry): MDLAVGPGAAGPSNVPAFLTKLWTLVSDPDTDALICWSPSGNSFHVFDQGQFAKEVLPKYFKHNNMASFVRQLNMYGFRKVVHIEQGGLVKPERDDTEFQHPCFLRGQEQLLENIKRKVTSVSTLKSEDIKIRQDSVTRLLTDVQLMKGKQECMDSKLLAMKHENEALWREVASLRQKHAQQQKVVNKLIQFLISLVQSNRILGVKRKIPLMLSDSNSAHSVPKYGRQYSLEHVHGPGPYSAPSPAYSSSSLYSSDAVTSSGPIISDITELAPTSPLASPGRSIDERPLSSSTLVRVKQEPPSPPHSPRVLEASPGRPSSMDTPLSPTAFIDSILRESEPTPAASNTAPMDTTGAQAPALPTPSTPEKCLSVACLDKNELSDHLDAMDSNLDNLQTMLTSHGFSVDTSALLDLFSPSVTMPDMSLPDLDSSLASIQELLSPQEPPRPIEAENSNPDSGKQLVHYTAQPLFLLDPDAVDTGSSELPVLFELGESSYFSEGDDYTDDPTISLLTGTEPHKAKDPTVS

[2] = Luminescence Cell-Based Dose Response HTS to Identify Inhibitors of 5'UTR Stem-Loop Driven Prion Protein mRNA Translation in H4 Neuroglioblastoma Cells. [Related pubchem assays: 1827 (Project Summary), 1813 (Primary HTS)]; assay type: functional
[3] = inhibitors of firefly luciferase expression or activity, dose response, H4 neuroglioma cells, luminescence (AID 1990); assay type: functional, cell-based
[4] = inhibitors of SNCA 5'UTR-driven reporter translation, confirmation, H4 neuroglioma cells, luminescence (AID 1988); assay type: functional, cell-based
[5] = biological target: T2, Corticotropin-releasing factor receptor 2/Corticotropin-releasing factor-binding protein (Homo sapiens, UniProt P24387+Q13324); assay: activators of CRF receptor 2 with binding protein – uHTS hits, confirmation (AID 602473); assay type: functional; conditions: read-out: EC50_Mean
T2 sequence (Q13324 whole entry): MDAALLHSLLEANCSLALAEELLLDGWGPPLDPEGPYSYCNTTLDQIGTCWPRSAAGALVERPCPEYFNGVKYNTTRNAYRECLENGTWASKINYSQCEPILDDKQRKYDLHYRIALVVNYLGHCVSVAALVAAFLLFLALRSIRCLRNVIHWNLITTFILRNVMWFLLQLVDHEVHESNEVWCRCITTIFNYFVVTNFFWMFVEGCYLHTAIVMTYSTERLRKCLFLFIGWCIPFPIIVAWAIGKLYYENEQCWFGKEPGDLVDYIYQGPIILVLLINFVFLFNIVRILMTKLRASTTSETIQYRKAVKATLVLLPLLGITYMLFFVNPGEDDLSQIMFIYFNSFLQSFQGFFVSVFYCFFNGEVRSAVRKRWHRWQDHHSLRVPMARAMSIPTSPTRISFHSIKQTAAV
T2 sequence (P24387 whole entry): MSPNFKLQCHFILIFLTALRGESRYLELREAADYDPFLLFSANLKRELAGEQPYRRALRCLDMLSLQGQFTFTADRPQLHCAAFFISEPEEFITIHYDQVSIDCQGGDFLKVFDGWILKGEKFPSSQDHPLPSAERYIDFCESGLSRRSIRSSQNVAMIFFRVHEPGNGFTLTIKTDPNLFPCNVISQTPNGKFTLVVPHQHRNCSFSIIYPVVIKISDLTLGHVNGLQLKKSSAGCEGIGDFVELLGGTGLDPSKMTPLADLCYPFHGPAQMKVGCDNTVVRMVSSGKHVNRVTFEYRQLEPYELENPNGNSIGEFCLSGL

Cytochrome P450 2C19 = Cytochrome P450 2C19 (Homo sapiens, UniProt P33261); assay: Cytochrome panel assay with activity outcomes. Panel member name: p450-cyp2c19 Compounds with AC50 equal or less than 10 uM are considered active; assay type: functional; conditions: read-out: AC50
Chain of Cytochrome P450 2C19 (P33261 whole entry): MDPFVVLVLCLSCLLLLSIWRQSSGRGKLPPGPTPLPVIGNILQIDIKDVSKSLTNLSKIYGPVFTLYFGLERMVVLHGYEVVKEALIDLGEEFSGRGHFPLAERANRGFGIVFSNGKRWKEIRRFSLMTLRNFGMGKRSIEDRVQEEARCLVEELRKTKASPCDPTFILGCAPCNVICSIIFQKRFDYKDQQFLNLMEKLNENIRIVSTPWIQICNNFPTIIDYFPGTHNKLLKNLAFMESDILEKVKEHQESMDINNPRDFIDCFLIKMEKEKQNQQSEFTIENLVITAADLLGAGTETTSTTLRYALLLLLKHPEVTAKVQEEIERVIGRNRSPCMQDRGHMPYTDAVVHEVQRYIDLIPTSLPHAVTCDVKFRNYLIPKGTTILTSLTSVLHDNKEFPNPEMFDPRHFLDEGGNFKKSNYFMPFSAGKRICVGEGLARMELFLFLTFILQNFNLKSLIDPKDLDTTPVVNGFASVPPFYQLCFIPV

[6] = HEp-2 cell cytotoxicity, dose response, cytotoxicity control for RSV inhibitor project, HTS (AID 2410); assay type: functional; conditions: human respiratory syncytial virus
Cytochrome P450 1A2 = biological target: T3, Cytochrome P450 1A2 (Homo sapiens, UniProt P05177);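 also: PubChem cytochrome P450 panel assay, CYP1A2 panel member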
T3 sequence (P05177 whole entry): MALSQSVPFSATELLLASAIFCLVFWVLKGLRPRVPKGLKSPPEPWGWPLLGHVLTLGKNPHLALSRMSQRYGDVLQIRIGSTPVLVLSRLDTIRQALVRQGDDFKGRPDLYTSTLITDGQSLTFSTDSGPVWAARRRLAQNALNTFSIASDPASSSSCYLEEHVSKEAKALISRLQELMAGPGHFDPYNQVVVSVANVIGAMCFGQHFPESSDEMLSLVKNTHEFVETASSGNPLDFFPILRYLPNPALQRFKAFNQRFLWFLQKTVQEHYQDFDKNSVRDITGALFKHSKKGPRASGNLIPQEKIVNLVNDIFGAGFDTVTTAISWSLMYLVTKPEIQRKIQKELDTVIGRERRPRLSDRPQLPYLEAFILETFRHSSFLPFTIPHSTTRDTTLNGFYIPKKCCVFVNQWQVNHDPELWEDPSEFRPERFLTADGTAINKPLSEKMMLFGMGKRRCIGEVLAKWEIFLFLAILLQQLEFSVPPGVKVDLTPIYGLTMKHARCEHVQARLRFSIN

Cytochrome P450 3A4 = Cytochrome P450 3A4 (Homo sapiens, UniProt P08684);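 also: CYP3A4 tested as one member of a cytochrome P450 panel screen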
Chain of Cytochrome P450 3A4 (P08684 whole entry): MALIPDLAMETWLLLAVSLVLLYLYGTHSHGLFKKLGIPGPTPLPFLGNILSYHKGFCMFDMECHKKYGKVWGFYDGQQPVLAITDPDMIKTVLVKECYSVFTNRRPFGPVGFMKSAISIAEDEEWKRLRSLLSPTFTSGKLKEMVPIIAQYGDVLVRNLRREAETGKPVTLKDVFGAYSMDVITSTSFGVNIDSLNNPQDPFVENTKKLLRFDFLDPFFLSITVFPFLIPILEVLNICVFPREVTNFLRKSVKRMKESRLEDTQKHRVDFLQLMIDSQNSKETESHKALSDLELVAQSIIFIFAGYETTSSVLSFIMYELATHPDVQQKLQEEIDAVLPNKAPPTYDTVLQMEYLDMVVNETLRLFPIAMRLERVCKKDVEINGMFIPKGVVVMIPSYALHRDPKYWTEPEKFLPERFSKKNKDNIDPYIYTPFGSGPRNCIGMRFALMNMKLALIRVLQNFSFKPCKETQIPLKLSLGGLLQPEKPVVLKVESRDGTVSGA

Cytochrome P450 2C9 = Cytochrome P450 2C9 (Homo sapiens, UniProt P11712)
Chain of Cytochrome P450 2C9 (P11712 whole entry): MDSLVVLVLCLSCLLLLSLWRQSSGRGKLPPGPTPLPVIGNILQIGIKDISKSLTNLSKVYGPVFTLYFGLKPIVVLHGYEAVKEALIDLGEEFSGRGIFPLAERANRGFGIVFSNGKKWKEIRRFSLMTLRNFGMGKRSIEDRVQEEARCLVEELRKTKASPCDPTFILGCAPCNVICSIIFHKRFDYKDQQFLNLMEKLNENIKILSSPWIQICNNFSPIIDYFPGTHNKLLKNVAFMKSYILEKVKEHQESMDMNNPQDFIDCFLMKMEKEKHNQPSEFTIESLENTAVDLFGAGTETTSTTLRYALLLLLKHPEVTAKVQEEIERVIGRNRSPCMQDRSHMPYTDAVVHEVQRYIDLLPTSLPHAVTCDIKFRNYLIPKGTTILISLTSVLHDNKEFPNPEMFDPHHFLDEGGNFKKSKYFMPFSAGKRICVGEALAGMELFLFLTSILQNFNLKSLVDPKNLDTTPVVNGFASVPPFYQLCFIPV

[7] = cytotoxicity toward NIH3T3 fibroblasts, dose response, counter-screen, cell-based, ATP luminescence, mouse fibroblasts (AID 2010); assay type: functional;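 also: cells exposed to compound for about 90 hours before reading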
[8] = inhibitors of intracellular T. cruzi replication, confirmation, NIH3T3 host cells, beta-gal luminescence (AID 2044); assay type: functional, cell-based;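 also: intracellular parasites grown in NIH/3T3 mouse fibroblasts as host cells; luminescent beta-galactosidase reporter signal from transgenic T. cruzi replicating inside host cells; inhibitors lower the luminescence signal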

Cc1noc(C)c1CSCC(=O)Nc1ccc(S(=O)(=O)C(F)F)cc1
EC50 [1]: > 195 µM (not active)

O=C(NCCCN1CCOCC1)c1ccc(-n2nc(C(F)(F)F)cc2-c2cccs2)cc1
EC50 [2]: 34.9 µM (active) | EC50 [3]: 11.6 µM (active) | EC50 [4]: 16.4 µM (active)

CCC1CCCCN1Cc1ccc(OC)c(C)c1 (stereo unspecified)
EC50 [5]: 14 µM (active)

O=C(NNC(=O)C12CC3CC(CC(C3)C1)C2)c1ccccc1F
EC50 [2]: > 120 µM (not active) | EC50 [3]: 17.7 µM (active) | EC50 [4]: 10.2 µM (active)

C=C(C)Cn1c(NCCC)nc2c1c(=O)n(C)c(=O)n2C
EC50 [1]: > 195 µM (not active)

Cc1n[nH]c(C)c1S(=O)(=O)N1CCC(C(=O)O)CC1
AC50 (Cytochrome P450 2C19): 22.4 µM (inconclusive)

COc1ccc(CN2CCSCC2)cc1C
EC50 [5]: 12.7 µM (active)

CC(C)CC1Nc2ccc(C(=O)NCCCN3CCOCC3)cc2NC1=O (stereo unspecified)
EC50 [1]: > 195 µM (not active)

CCN1CCN(Cc2ccc(NC(=O)c3cc(NC(=O)c4cnnc5ccccc45)cc(OC)c3)cc2C(F)(F)F)CC1
CC50 [6]: 29 µM (active)

CCCn1c(SCC(=O)N2CC(=O)Nc3ccccc32)nc2ccccc21
EC50 [5]: > 53 µM (inactive)

O=C(OCC(=O)N1N=C(c2ccc(Cl)cc2)CC1c1ccco1)c1ccco1 (stereo unspecified)
EC50 [5]: > 53 µM (inactive)

Cc1cccc(-c2nnc3n2N=C(c2ccccc2)CS3)c1
EC50 [2]: > 120 µM (not active) | EC50 [3]: > 120 µM (not active) | EC50 [4]: 12.4 µM (active)

COC(=O)[C@@]1(Cc2ccc(F)cc2)[C@H]2c3cc(C(=O)N4CCCC4)n(Cc4ccccn4)c3C[C@H]2CN1C(=O)c1ccccc1
AC50 (Cytochrome P450 1A2): 20 µM (inconclusive) | AC50 (Cytochrome P450 2C19): 39.8 µM (inconclusive)

COC(=O)[C@@H]1CC[C@H](C)[C@@H](c2ccc(C)cc2)N1C(=O)c1ccc(/C=N\OC[C@@H](O)COCc2ccco2)cc1
AC50 (Cytochrome P450 3A4): 1.26 µM (inconclusive) | AC50 (Cytochrome P450 2C19): 2.51 µM (inconclusive)

CCSc1nnc(NC(=O)C(Cc2ccccc2)n2cccc2)s1 (stereo unspecified)
EC50 [1]: > 195 µM (not active)

COc1ccc(CC(=N)NOC(=O)Cc2ccccc2)cc1OC
AC50 (Cytochrome P450 1A2): 14.1 µM (inconclusive) | AC50 (Cytochrome P450 2C19): 15.8 µM (inconclusive)

COc1ccccc1C(=O)N/C(=C\c1cn(S(=O)(=O)N(C)C)c2ccccc12)C(=O)NCCN1CCOCC1
EC50 [1]: > 195 µM (not active)

C[C@]12CC[C@H]3c4ccc(OC[C@H]5CO5)cc4CC[C@H]3[C@H]1CC[C@@H]2O
AC50 (Cytochrome P450 2C9): 3.16 µM (inconclusive) | AC50 (Cytochrome P450 2C19): 3.16 µM (inconclusive)

CCOc1ccccc1-n1c(SCC(=O)Nc2ccc(CC)cc2)nc2nnc(C)c-2c1N
EC50 [3]: > 60 µM (not active) | CC50 [6]: 45.1 µM (active) | EC50 [4]: 9.77 µM (active)

CC(Nc1ccccc1CO)C(=O)Nc1cccc(Cl)c1Cl (stereo unspecified)
EC50 [2]: 0.12 µM (active) | EC50 [3]: 7.64 µM (active) | EC50 [4]: 12.9 µM (active)

CCN(C(=O)C1CCCN(c2ncnc3c2nc2n3CCCCC2)C1)c1cccc(Cl)c1 (stereo unspecified)
CC50 [6]: 10.7 µM (active)

COc1c(Br)cc([N+](=O)[O-])c(OC)c1C(=O)NC(=O)Nc1cc(Cl)cc(Cl)c1
EC50 [2]: 17.8 µM (active) | EC50 [3]: > 120 µM (not active) | EC50 [4]: 15.1 µM (active)

COc1cc2cc(CN(C(=O)NC3CCCCC3)C3CCCC3)c(O)nc2cc1OC
EC50 [1]: > 195 µM (not active)

CC(C)OCCCNC(=O)C1CC(=O)N(C2CCCCCCC2)C1 (stereo unspecified)
AC50 (Cytochrome P450 3A4): 25.1 µM (inconclusive) | AC50 (Cytochrome P450 2C19): 17.8 µM (inconclusive)

COc1ccc(NC(=O)CC#N)cc1OC
AC50 (Cytochrome P450 2C19): 0.00501 µM (inconclusive)

COc1cccc(C(c2nnnn2Cc2ccco2)N2CCN(c3cccc(C)c3C)CC2)c1OC (stereo unspecified)
CC50 [6]: 18.5 µM (active)

COC(=O)N1CCC2(CCCN(C(=O)Nc3cccc(C#N)c3)C2)CC1
AC50 (Cytochrome P450 3A4): 6.31 µM (inconclusive) | AC50 (Cytochrome P450 2C19): 10 µM (inconclusive)

COc1cc2c(cc1OC)CN(C(=O)CCCOc1ccc(Cl)cc1Cl)CC2
CC50 [6]: 24.7 µM (active)

COCC(C)OC(=O)C(C#N)c1nc2ccccc2nc1N1CCN(Cc2ccccc2)CC1 (stereo unspecified)
EC50 [2]: > 120 µM (not active) | EC50 [3]: 17.6 µM (active) | EC50 [4]: 23.7 µM (active)

CCOc1ccc(N/C(=N/N)c2ccc3ccccc3n2)cc1
EC50 [1]: > 195 µM (not active)

Clc1ccc2c(c1)N(CCCN1CCCC13CCCCC3)c1ccccc1S2
AC50 (Cytochrome P450 2C19): 5.01 µM (inconclusive)

O=C(c1ccc2c(=O)n(Cc3ccccc3)c(=S)[nH]c2c1)N1CCOCC1
EC50 [1]: > 195 µM (not active)

CS(=O)(=O)N1CCC2(CC1)CN(c1ccncc1)C2
AC50 (Cytochrome P450 2C19): 20 µM (inconclusive)

CCCCCc1nc2c(c(=O)c3ccccc3n2C)c(=O)n1Cc1ccc(OC)cc1
CC50 [6]: > 50 µM (active)

N#CN(CC(N)=O)c1nc(N2CCCCC2)nc(N2CCCCC2)n1
AC50 (Cytochrome P450 2C9): 10 µM (inconclusive) | AC50 (Cytochrome P450 2C19): 22.4 µM (inconclusive)

CCCCCCc1cc2cc(C(=O)NCc3ccccc3)c(=N)oc2cc1O
EC50 [5]: 4.2 µM (active)

C=CCn1c(SCC(=O)NCCc2ccccc2)nnc1C(C)NC(=O)c1cccs1 (stereo unspecified)
EC50 [1]: > 195 µM (not active)

O=C(Nc1ccc2ccccc2c1)c1cn(-c2ccccc2)nc1-c1cccs1
EC50 [7]: > 60 µM (not active) | CC50 [6]: 18.6 µM (active) | EC50 [8]: 1.86 µM (active)

CCN(CC)c1nc2c(c(=O)[nH]c(=O)n2C)n1CCOc1ccccc1
EC50 [1]: > 195 µM (not active)

CCc1nc2c(c(=O)c3ccccc3n2C)c(=O)n1C1CCCCCC1
EC50 [5]: 6.21 µM (active) | CC50 [6]: 20.7 µM (active)

Cc1noc(C)c1COC(=O)c1cccc(N(C)C)c1
CC50 [6]: 11.9 µM (active)

COc1ccc(NS(=O)(=O)c2ccc(-c3ccccn3)s2)cc1
EC50 [1]: > 195 µM (not active)

O=C(CN1CCN(Cc2ccccc2Cl)C1=O)NCc1ccccn1
EC50 [2]: > 120 µM (not active) | EC50 [3]: > 120 µM (not active) | EC50 [4]: > 120 µM (not active)

N#Cc1c(-c2ccc3c(c2)OCO3)csc1N
EC50 [1]: > 195 µM (not active)

Cc1cc([N+](=O)[O-])ccc1NC(=O)CCC(=O)N1CCCCC1
EC50 [1]: > 195 µM (not active)

CC1(C)Cc2ccccc2C(NNC(=O)c2ccncc2)=N1
AC50 (Cytochrome P450 2C19): 31.6 µM (inconclusive)

CN(c1ccccc1)S(=O)(=O)c1nnc(NC(=O)COc2ccccc2F)s1
EC50 [1]: > 195 µM (not active)

Cc1ccc2nc(CC(=O)c3ccc4ccccc4c3)c(O)nc2c1
AC50 (Cytochrome P450 3A4): 3.98 µM (inconclusive) | AC50 (Cytochrome P450 1A2): 2 µM (inconclusive) | AC50 (Cytochrome P450 2C19): 0.794 µM (inconclusive)
